Values of other authors in US20110274624A1, “CONTRAST AGENTS IN POROUS PARTICLES” (WILLIAM MARSH RICE UNIVERSITY, priority 2010, published 2011).
Where two headings read alike, the source gives them in different places.

r1 per Gd^3+ ion (1.41T) | longitudinal relaxivity r1 (field not stated) | r1 per Gd^3+ ion (1.5T) | Structure (SMILES)
3.1 (1.41T) mM^−1s^−1 | – | – | O=C([O-])CN1CCN(CC(=O)[O-])CCN(CC(=O)[O-])CCN(CC(=O)[O-])CC1.[Gd+3] [Gd-DOTA]
3.6 (1. 41T) mM^−1s^−1 | – | – | CNC(=O)CN(CCN(CCN(CC(=O)[O-])CC(=O)NC)CC(=O)[O-])CC(=O)[O-].[Gd+3] [Gd-DTPA-BMA]
– | ~8 mM⁻¹ s⁻¹ | – | [Gd+3] [Gd^3+ ion]
3.4 (1.41T) mM^−1s^−1 | – | ~4 mM⁻¹ s⁻¹ | O=C([O-])CN(CCN(CC(=O)[O-])CC(=O)[O-])CCN(CC(=O)[O-])CC(=O)[O-].[Gd+3] [MAG, Gd-DTPA]

Further lines, the compound ahead of its results:

Structure (SMILES) | r1 per Gd^3+ ion (1.41T) | longitudinal relaxivity r1 (field not stated) | r1 per Gd^3+ ion (1.5T)
O=C([O-])CN(CCN(CC(=O)[O-])CC(=O)[O-])CCN(CC(=O)[O-])C(COCc1ccccc1)C(=O)[O-].[Gd+3] (stereo not shown) [Gd-BOPTA] | 4.1 (1. 41T) mM^−1s^−1 | – | –
CC(O)CN1CCN(CC(=O)[O-])CCN(CC(=O)[O-])CCN(CC(=O)[O-])CC1.[Gd+3] (stereo not shown) [Gd-HP-DO3A] | 3.2 (1. 41T) mM^−1s^−1 | – | –
